Consider 15 compounds from US20110118262A1, “Pyrrolidinyl and Piperidinyl Compounds Useful as NHE-1 Inhibitiors” (BOEHRINGER INGELHEIM INTERNATIONAL GMBH, priority 2008, published 2011).

By IC50 is commonly meant the concentration that inhibits the measured activity by half.

For the experiment, the target named is T1, NHE-1 (Homo sapiens, UniProt P19634).
T1 construct: endogenous in cells; host or cells: HT-29
T1 sequence (P19634 whole entry): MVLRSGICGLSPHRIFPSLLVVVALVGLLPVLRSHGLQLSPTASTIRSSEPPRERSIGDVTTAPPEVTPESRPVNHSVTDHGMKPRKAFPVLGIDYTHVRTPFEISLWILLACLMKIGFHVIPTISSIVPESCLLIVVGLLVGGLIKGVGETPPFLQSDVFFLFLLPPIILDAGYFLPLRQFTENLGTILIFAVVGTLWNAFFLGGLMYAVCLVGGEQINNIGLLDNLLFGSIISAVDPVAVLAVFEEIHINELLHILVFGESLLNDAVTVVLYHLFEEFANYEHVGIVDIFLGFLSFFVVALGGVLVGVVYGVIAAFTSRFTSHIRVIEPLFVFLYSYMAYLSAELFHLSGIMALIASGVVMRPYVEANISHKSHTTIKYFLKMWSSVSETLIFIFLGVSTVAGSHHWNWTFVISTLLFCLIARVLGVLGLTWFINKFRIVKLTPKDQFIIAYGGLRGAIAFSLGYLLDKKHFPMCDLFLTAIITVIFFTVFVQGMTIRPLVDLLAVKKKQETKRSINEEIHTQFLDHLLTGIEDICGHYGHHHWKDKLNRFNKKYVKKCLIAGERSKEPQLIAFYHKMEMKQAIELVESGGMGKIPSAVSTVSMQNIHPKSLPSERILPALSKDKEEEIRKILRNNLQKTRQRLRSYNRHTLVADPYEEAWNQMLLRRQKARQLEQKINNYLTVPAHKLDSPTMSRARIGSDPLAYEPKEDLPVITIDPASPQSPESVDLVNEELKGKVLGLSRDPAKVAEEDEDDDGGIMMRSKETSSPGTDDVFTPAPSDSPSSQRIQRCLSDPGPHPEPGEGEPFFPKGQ
Kind of experiment: Evaluation of NHE-1 Inhibition (pHi) in HT-29 cells. It is filed as cell-based. As to conditions: BCECF dye, 50% inhibition of the intracellular pH recovery, read-out: NHE1 HT29 pHi IC50. In outline:
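Intracellular pH measured with BCECF in HT-29 cells after 24 h culture. Cells dye-loaded 30 min at 37° C, then acid-loaded with NH4Cl-containing choline buffer (pH 7.5) for 30 min at RT. Compounds added on an FDSS6000 fluorescence reader.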
Turning to `N=C(N)NC(=O)c1ccc(C2CCN(C(=O)c3ccccn3)CC2)c(C(F)(F)F)c1` [N-{4-[1-(Pyridine-2-carbonyl)-piperidin-4-yl]-3-trifluoromethyl-benzoyl}-guanidine], the IC50 was found to be 10 nM.
Then `N=C(N)NC(=O)c1ccc(C2CCN(C(=O)c3cccnc3)CC2)c(C(F)(F)F)c1` [N-{4-[1-(Pyridine-3-carbonyl)-piperidin-4-yl]-3-trifluoromethyl-benzoyl}-guanidine], with 10 nM.
For the compound `N=C(N)NC(=O)c1ccc(C2CCN(C(=O)c3ccncc3)CC2)c(C(F)(F)F)c1` [N-{4-[1-(Pyridine-4-carbonyl)-piperidin-4-yl]-3-trifluoromethyl-benzoyl}-guanidine], the half-maximal inhibitory concentration (IC50) is 9 nM.
`N=C(N)NC(=O)c1ccc(C2CCN(C(=O)c3ccncn3)CC2)c(C(F)(F)F)c1` [N-{4-[1-(Pyrimidine-4-carbonyl)-piperidin-4-yl]-3-trifluoromethyl-benzoyl}-guanidine]: the IC50 amounted to 19 nM.
Then `N=C(N)NC(=O)c1ccc(C2CCN(C(=O)C3CCCN3)CC2)c(C(F)(F)F)c1` (stereo not drawn) [N-{4-[1-(Pyrrolidine-2-carbonyl)-piperidin-4-yl]-3-trifluoromethyl-benzoyl}-guanidine], with 11 nM; and `N=C(N)NC(=O)c1ccc(C2CCN(C(=O)C3CCNC3)CC2)c(C(F)(F)F)c1` (stereo not drawn) [N-{4-[1-(Pyrrolidine-3-carbonyl)-piperidin-4-yl]-3-trifluoromethyl-benzoyl}-guanidine], with 5 nM; and `N=C(N)NC(=O)c1ccc(C2CCN(C(=O)c3cnc4ccccc4c3)CC2)c(C(F)(F)F)c1` [N-{4-[1-(Quinoline-3-carbonyl)-piperidin-4-yl]-3-trifluoromethyl-benzoyl}-guanidine], with 70 nM.
As for `N=C(N)NC(=O)c1ccc(C2CCN(C(=O)c3cccc4ncccc34)CC2)c(C(F)(F)F)c1` [N-{4-[1-(Quinoline-5-carbonyl)-piperidin-4-yl]-3-trifluoromethyl-benzoyl}-guanidine], the IC50 was determined as 46 nM.
As to `N=C(N)NC(=O)c1ccc(C2CCN(C(=O)c3ccc4ncccc4c3)CC2)c(C(F)(F)F)c1` [N-{4-[1-(Quinoline-6-carbonyl)-piperidin-4-yl]-3-trifluoromethyl-benzoyl}-guanidine], the IC50 turned out to be 64 nM.
Consider `N=C(N)NC(=O)c1ccc(C2CCN(C(=O)C3CCOCC3)CC2)c(C(F)(F)F)c1` [N-{4-[1-(Tetrahydro-pyran-4-carbonyl)-piperidin-4-yl]-3-trifluoromethyl-benzoyl}-guanidine], for which the IC50 worked out at 61 nM.
Then `N=C(N)NC(=O)c1ccc(C2CCN(C(=O)c3cscn3)CC2)c(C(F)(F)F)c1` [N-{4-[1-(Thiazole-4-carbonyl)-piperidin-4-yl]-3-trifluoromethyl-benzoyl}-guanidine], with 18 nM.
Consider `N=C(N)NC(=O)c1ccc(C2CCN(C(=O)c3ccc4cccnc4n3)CC2)c(C(F)(F)F)c1` [N-{4-[1-([1,8]Naphthyridine-2-carbonyl)-piperidin-4-yl]-3-trifluoromethyl-benzoyl}-guanidine], for which the IC50 was 25 nM.
As for `Cc1cc(C2CCN(C(=O)c3cccc(C(F)(F)F)c3)CC2)c(S(C)(=O)=O)cc1C(=O)NC(=N)N` [N-{5-methanesulfonyl-2-methyl-4-[1-(3-trifluoromethyl-benzoyl)-piperidin-4-yl]-benzoyl}-guanidine], the figure is 51 nM; as for `COCC(=O)N1CCC(c2cc(C)c(C(=O)NC(=N)N)cc2S(C)(=O)=O)CC1` [N-{5-methanesulfonyl-4-[1-(2-methoxy-acetyl)-piperidin-4-yl]-2-methyl-benzoyl}-guanidine], 15 nM; as for `CCC(=O)N1CCC(c2cc(C)c(C(=O)NC(=N)N)cc2S(C)(=O)=O)CC1` [N-{5-methanesulfonyl-4-[1-propionyl-piperidin-4-yl]-2-methyl-benzoyl}-guanidine], 16 nM.
